Some test systems named below: A498 renal; ACHN renal; DU-145 prostate; HCT-15 colon; HL-60(TB) leukemia; HOP-62 NSCLC; HT29 colon; MDA-MB-231 breast; NCI-H226 lung; OVCAR-4 ovarian; SF-295 CNS; SF-539 CNS; SN12C renal; SNB-19 CNS; SNB-75 CNS; TK-10 renal.
What all share (test): NCI tumour cell line growth inhibition, 48 h

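In this assay, cells in 96-well plates receive the compound at five concentrations for 48 hours. Endpoints are linearly interpolated between the surrounding concentrations. At the TGI there is no net growth.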 Bounds are passed on as bounds.

Take `C=CCOC(=O)NC1C(OC(C)[C@@H](NC(=O)OCc2ccccc2)C(=O)OC(C)(C)C)OC(COC(C)=O)C(OC(C)=O)C1OC(C)=O` (stereo partly drawn): the TGI in the experiment with A498 renal, in the experiment on ACHN renal, in the experiment with DU-145 prostate, in the experiment on HCT-15 colon, in the experiment with HL-60(TB) leukemia and with HOP-62 NSCLC was more than 100 µM each time. Moreover, the TGI with HT29 colon is more than 100 µM; in the experiment with MDA-MB-231 breast, 96.2 µM; in the experiment with NCI-H226 lung, more than 100 µM; in the experiment on OVCAR-4 ovarian, more than 100 µM; with SF-295 CNS, more than 100 µM; in the experiment with SF-539 CNS, more than 100 µM. Moreover, the TGI with SN12C renal is more than 100 µM; in the experiment on SNB-19 CNS, more than 100 µM; in the experiment on SNB-75 CNS it was 9.46 µM; with TK-10 renal it was more than 100 µM.

As for `Clc1cc(Cl)cc(C=NC23CC4CC(CC(C4)C2)C3)c1`, the TGI in the experiment with A498 renal, with ACHN renal, in the experiment on DU-145 prostate, in the experiment on HCT-15 colon, with HL-60(TB) leukemia and in the experiment with HOP-62 NSCLC was more than 10 µM each time. The TGI with HT29 colon, with MDA-MB-231 breast, with NCI-H226 lung, in the experiment with OVCAR-4 ovarian, with SF-295 CNS and in the experiment with SF-539 CNS was more than 10 µM each time. For the same compound, the TGI with SN12C renal, with SNB-19 CNS, with SNB-75 CNS and in the experiment on TK-10 renal was more than 10 µM each time.

`CC(=O)Oc1ccc(-c2cc3ccccc3oc2=O)cc1`: the TGI with A498 renal, with ACHN renal, in the experiment on DU-145 prostate, in the experiment on HCT-15 colon, in the experiment on HL-60(TB) leukemia and in the experiment on HOP-62 NSCLC was more than 100 µM in each case. Besides, the TGI in the experiment on HT29 colon, in the experiment with MDA-MB-231 breast, in the experiment on NCI-H226 lung, in the experiment on OVCAR-4 ovarian, in the experiment with SF-295 CNS and in the experiment on SF-539 CNS was more than 100 µM each time. The TGI in the experiment on SN12C renal, with SNB-19 CNS, with SNB-75 CNS and in the experiment on TK-10 renal was more than 100 µM throughout.

Consider `C=CCC1(OC(C)=O)C2OC(=O)C1(O)OCC2O` (stereo not drawn), for which the TGI in the experiment with A498 renal, with ACHN renal, with DU-145 prostate, in the experiment with HCT-15 colon, with HL-60(TB) leukemia and in the experiment with HOP-62 NSCLC was more than 100 µM in each case. For the same compound, the TGI in the experiment on HT29 colon, with MDA-MB-231 breast, in the experiment on NCI-H226 lung, with OVCAR-4 ovarian, in the experiment on SF-295 CNS and in the experiment on SF-539 CNS was more than 100 µM throughout. Further, the TGI in the experiment with SN12C renal was more than 100 µM; in the experiment with SNB-19 CNS, more than 100 µM; with SNB-75 CNS it was 98.9 µM; with TK-10 renal it was more than 100 µM.

Consider `CC(C)=CCC/C(=C/CC/C(=C\CCc1ccoc1)C(=O)O)C(=O)O`, for which the TGI in the experiment on A498 renal, in the experiment with ACHN renal, in the experiment on DU-145 prostate, in the experiment on HCT-15 colon, in the experiment with HL-60(TB) leukemia and with HOP-62 NSCLC was more than 100 µM in each case. Moreover, the TGI with HT29 colon, in the experiment with MDA-MB-231 breast, in the experiment on NCI-H226 lung, in the experiment on OVCAR-4 ovarian, with SF-295 CNS and in the experiment with SF-539 CNS was more than 100 µM in each case. The TGI in the experiment on SN12C renal, in the experiment on SNB-19 CNS, in the experiment with SNB-75 CNS and in the experiment on TK-10 renal was more than 100 µM throughout.

Take `CCOP(=O)(OCC)C(C)(CC)N/C(=N/C(NC(C)=O)(C(F)(F)F)C(F)(F)F)NC1=NC(C(F)(F)F)(C(F)(F)F)N=C(C(F)(F)F)O1` (stereo not drawn): the TGI in the experiment on A498 renal was more than 100 µM; with ACHN renal it was more than 100 µM; with DU-145 prostate, more than 100 µM; in the experiment with HCT-15 colon it was more than 100 µM; in the experiment on HL-60(TB) leukemia it was 45.8 µM; in the experiment on HOP-62 NSCLC, more than 100 µM. In addition, the TGI in the experiment with HT29 colon is more than 100 µM; in the experiment with MDA-MB-231 breast, 48.7 µM; with NCI-H226 lung, 70.1 µM; with OVCAR-4 ovarian, 84.2 µM; with SF-295 CNS it was 82.8 µM; in the experiment with SF-539 CNS, more than 100 µM. Moreover, the TGI in the experiment on SN12C renal was more than 100 µM; in the experiment with SNB-19 CNS, more than 100 µM; in the experiment with SNB-75 CNS, 27.2 µM; in the experiment with TK-10 renal, more than 100 µM.

`CN(C)C(=S)/N=c1\ssc(=S)n1Cc1cccnc1`: the TGI in the experiment on A498 renal is more than 100 µM; with ACHN renal, more than 100 µM; in the experiment on DU-145 prostate, more than 64.3 µM; in the experiment with HCT-15 colon, more than 75 µM; in the experiment with HL-60(TB) leukemia, more than 57.8 µM; in the experiment with HOP-62 NSCLC, more than 100 µM. Besides, the TGI in the experiment with HT29 colon is more than 49.5 µM; in the experiment on MDA-MB-231 breast, more than 100 µM; in the experiment with NCI-H226 lung, more than 100 µM; with OVCAR-4 ovarian it was more than 100 µM; in the experiment with SF-295 CNS, 16.8 µM; with SF-539 CNS, more than 100 µM. In addition, the TGI in the experiment on SN12C renal was more than 100 µM; with SNB-19 CNS, more than 100 µM; with SNB-75 CNS, 20.6 µM; with TK-10 renal it was more than 100 µM.

As to `Cc1cc2c(cc1Cl)S(=O)(=O)OC(c1ccc([N+](=O)[O-])cc1)=N2`, the TGI in the experiment with A498 renal, in the experiment on ACHN renal, in the experiment with DU-145 prostate, in the experiment with HCT-15 colon, with HL-60(TB) leukemia and in the experiment with HOP-62 NSCLC was more than 100 µM in each case. Further, the TGI with HT29 colon, with MDA-MB-231 breast, with NCI-H226 lung, in the experiment with OVCAR-4 ovarian, with SF-295 CNS and in the experiment on SF-539 CNS was more than 100 µM each time. Further, the TGI in the experiment with SN12C renal, with SNB-19 CNS, with SNB-75 CNS and in the experiment with TK-10 renal was more than 100 µM each time.

These data come from PubChem BioAssay (NCI).
